We go through one compound from US11590236B2, “Compositions and methods for altering macrophage phenotype” (priority 2019, dated 2023).

The test system of this series is macrophages differentiated from human peripheral blood monocytes. In words: Cell death / viability of macrophages after drug exposure. The format is cell-based. As to conditions: all concentrations tested. The protocol: As with Cu(II)-tilmanocept, MT1001.8 was evaluated using macrophages differentiated from human peripheral blood monocytes cultured in supplemented RPMI-1640 medium to which GM-CSF was added. The resulting macrophages were then exposed for 23 hours to MT1001.8 at different concentrations ranging from 0 (controls) to 6.68 μM. Free doxorubicin and the mannosylated dextran construct without the doxorubicin payload were also evaluated as controls. After the 23-hour exposure to the drug construct, the drug containing media were removed and replaced with fresh supplemented RPMI-1640 with GM-CSF and incubated for an additional 72 hours. This final 72-hour incubation in fresh medium was to permit the macrophages to recover from the drug treatment and to manifest any phenotype changes that might have been induced by exposure to the drug construct. All experiments were replicated 5-8 times with peripheral blood monocytes obtained from 5 separate donors. After the last 72-hour incubation, the media were collected and analyzed for their concentrations of various cytokines.

Consider `COc1cccc2c1C(=O)c1c(O)c3c(c(O)c1C2=O)C[C@@](O)(C(=O)CO)C[C@@H]3O[C@H]1C[C@H](N)[C@H](O)[C@H](C)O1` [free doxorubicin, doxorubicin], for which the cell death entry is on record as “high levels of cell death”.
